The target of the test is T1, BTK (Homo sapiens, UniProt Q06187).
T1 construct: BTK Degradative Activity of Exemplary Compounds of the Present Disclosure in a RAMOS Cell Line; host or cells: RAMOS
As to the kind of experiment: BTK degradative activity in a RAMOS cell line (Western blot). The settings on record: 6 hours after administration, read-out: RAMOS BTK Degradation DC50. Format: cell-based. The method, then: RAMOS (ATCC) cells were plated in 24-well plates at 8×10^5 cells/well in the RPMI growth medium containing 10% heat-inactivated FBS and 1× Penicillin Streptomycin, and then incubated at 37° C. overnight. The following day, the test compound was administered to the cells by using 1000× compound stock solution prepared in DMSO at various concentrations. After administration of the compound, the cells were then incubated at 37° C. for 6 hours.
Upon completion, the cells were collected by centrifugation and lysed in Laemmli sample buffer (1×; VWR International). Proteins in cell lysate were separated by SDS-PAGE and transferred to Odyssey nitrocellulose membranes (Licor) with Iblot® dry blotting transfer system (ThermoFisher). Nonspecific binding was blocked by incubating membranes with Intercept Blocking Buffer (Licor) for 1 hour at room temperature with gentle shaking. The membranes were then incubated overnight at 4° C. with primary antibodies anti-BTK (Cell signaling, cat. #8547) and anti-GAPDH (Cell signaling, cat. #5179) diluted in Intercept Blocking Buffer containing 0.1% Tween 20. After washing 3 times with TBS-T, the membranes were incubated with IRDye® 800CW goat anti-mouse IgG (1:20,000, Licor) or IRDye® 800CW goat anti-rabbit IgG (1:20,000, Licor) for 1 hour. After TBS-T washes, membranes were rinsed in TBS and scanned on Odyssey® CLx Imaging System (Licor). The bands were quantified using Image Studio™ Software (Licor).
Table 3 summarizes the BTK degradative activity of exemplary compounds of the present disclosure in a RAMOS cell line 6 hours after administration. The DC50 values (i.e., the concentration of test compound at which 50% of the target protein is degraded) were calculated. A designation of “A” corresponds to a DC50 value less than 10 nM. A designation of “B” corresponds to a DC50 value greater than or equal to 10 nM and less than 100 nM. A designation of “C” corresponds to a DC50 value greater than or equal to 100 nM.
A general note: Immunoblotting shows a protein as a band on a membrane.

T1 sequence (Q06187 whole entry): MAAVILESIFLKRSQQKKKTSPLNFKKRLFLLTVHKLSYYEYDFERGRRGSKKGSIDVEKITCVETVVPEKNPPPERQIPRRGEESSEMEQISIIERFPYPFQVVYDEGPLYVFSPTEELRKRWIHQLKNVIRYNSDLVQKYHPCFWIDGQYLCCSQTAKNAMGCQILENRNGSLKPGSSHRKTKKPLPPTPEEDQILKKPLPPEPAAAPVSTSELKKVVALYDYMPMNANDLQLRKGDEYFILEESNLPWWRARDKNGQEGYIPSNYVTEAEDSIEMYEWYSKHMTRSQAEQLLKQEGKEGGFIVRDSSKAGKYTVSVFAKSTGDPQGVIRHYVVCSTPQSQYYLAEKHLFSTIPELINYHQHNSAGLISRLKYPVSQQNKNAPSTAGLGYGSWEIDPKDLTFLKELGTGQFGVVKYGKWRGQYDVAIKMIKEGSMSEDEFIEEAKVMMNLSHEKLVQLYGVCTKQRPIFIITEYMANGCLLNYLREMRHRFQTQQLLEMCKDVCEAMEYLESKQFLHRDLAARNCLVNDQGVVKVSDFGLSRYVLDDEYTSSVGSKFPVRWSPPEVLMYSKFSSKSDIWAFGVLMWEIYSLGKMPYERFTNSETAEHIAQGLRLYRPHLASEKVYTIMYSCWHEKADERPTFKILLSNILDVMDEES

Usually DC50 stands for the concentration at which degradation of the target reaches its halfway point. Take `O=C1CCC(N2C(=O)c3cccc(C#CCCCCC(=O)N4CCC(Nc5ncnc6[nH]cc(C(=O)c7ccc(Oc8ccccc8)cc7Cl)c56)CC4)c3C2=O)C(=O)N1` (centres unmarked) [Compound 36, 4-(7-(4-((5-(2-chloro-4-phenoxybenzoyl)-7H-pyrrolo[2,3-d]pyrimidin-4-yl)amino)piperidin-1-yl)-7-oxohept-1-yn-1-yl)-2-(2,6-dioxopiperidin-3-yl)isoindoline-1,3-dione]: the DC50 is not below 100 nM.

In the case of `O=C1CCC(N2C(=O)c3ccc(N4CCN(C5CC(CC(=O)N6CCC(Nc7ncnc8[nH]cc(C(=O)c9ccc(Oc%10ccccc%10)cc9Cl)c78)CC6)C5)CC4)cc3C2=O)C(=O)N1` (centres unmarked) [Compound 37, 5-(4-(3-(2-(4-((5-(2-chloro-4-phenoxybenzoyl)-7H-pyrrolo[2,3-d]pyrimidin-4-yl)amino)piperidin-1-yl)-2-oxoethyl)cyclobutyl)piperazin-1-yl)-2-(2,6-dioxopiperidin-3-yl)isoindoline-1,3-dione], the DC50 was in the range of 10 to 100 nM.

Regarding `O=C1CCC(N2C(=O)c3cccc(C#CCCCCCC(=O)N4CCC(Nc5ncnc6[nH]cc(C(=O)c7ccc(Oc8ccccc8)cc7Cl)c56)CC4)c3C2=O)C(=O)N1` (centres unmarked) [Compound 38, 4-(8-(4-((5-(2-chloro-4-phenoxybenzoyl)-7H-pyrrolo[2,3-d]pyrimidin-4-yl)amino)piperidin-1-yl)-8-oxooct-1-yn-1-yl)-2-(2,6-dioxopiperidin-3-yl)isoindoline-1,3-dione], the DC50 was not below 100 nM.

As to `O=C1CCC(N2Cc3c(C#CCCCCCCC(=O)N4CCC(Nc5ncnc6[nH]cc(C(=O)c7ccc(Oc8ccccc8)cc7Cl)c56)CC4)cccc3C2=O)C(=O)N1` (centres unmarked) [Compound 39, 3-(4-(9-(4-((5-(2-chloro-4-phenoxybenzoyl)-7H-pyrrolo[2,3-d]pyrimidin-4-yl)amino)piperidin-1-yl)-9-oxonon-1-yn-1-yl)-1-oxoisoindolin-2-yl)piperidine-2,6-dione], the DC50 was not below 100 nM.

As for `O=C1CCC(N2Cc3c(C#CCCCCCC(=O)N4CCC(Nc5ncnc6[nH]cc(C(=O)c7ccc(Oc8ccccc8)cc7Cl)c56)CC4)cccc3C2=O)C(=O)N1` (centres unmarked) [Compound 40, 3-(4-(8-(4-((5-(2-chloro-4-phenoxybenzoyl)-7H-pyrrolo[2,3-d]pyrimidin-4-yl)amino)piperidin-1-yl)-8-oxooct-1-yn-1-yl)-1-oxoisoindolin-2-yl)piperidine-2,6-dione], the DC50 was not below 100 nM.

With `O=C1CCC(N2Cc3c(C#CCCCCC(=O)N4CCC(Nc5ncnc6[nH]cc(C(=O)c7ccc(Oc8ccccc8)cc7Cl)c56)CC4)cccc3C2=O)C(=O)N1` (centres unmarked) [Compound 41, 3-(4-(7-(4-((5-(2-chloro-4-phenoxybenzoyl)-7H-pyrrolo[2,3-d]pyrimidin-4-yl)amino)piperidin-1-yl)-7-oxohept-1-yn-1-yl)-1-oxoisoindolin-2-yl)piperidine-2,6-dione], the DC50 is not below 100 nM.

As to `O=C1CC[C@H](N2Cc3cc(N4CCN(C5CC(CC(=O)N6CCC(Nc7ncnc8[nH]cc(C(=O)c9ccc(Oc%10ccccc%10)cc9Cl)c78)CC6)C5)CC4)ccc3C2=O)C(=O)N1` (stereo partly drawn) [Compound 42, (S)-3-(5-(4-(3-(2-(4-((5-(2-chloro-4-phenoxybenzoyl)-7H-pyrrolo[2,3-d]pyrimidin-4-yl)amino)piperidin-1-yl)-2-oxoethyl)cyclobutyl)piperazin-1-yl)-1-oxoisoindolin-2-yl)piperidine-2,6-dione], the DC50 was less than 10 nM.

As for `O=C1CCC(N2C(=O)c3ccc(N4CCN(C5CC(CC(=O)N6CCC[C@@H](Nc7ncnc8[nH]cc(C(=O)c9ccc(Oc%10ccccc%10)cc9Cl)c78)C6)C5)CC4)cc3C2=O)C(=O)N1` (stereo partly drawn) [Compound 43, 5-(4-(3-(2-((R)-3-((5-(2-chloro-4-phenoxybenzoyl)-7H-pyrrolo[2,3-d]pyrimidin-4-yl)amino)piperidin-1-yl)-2-oxoethyl)cyclobutyl)piperazin-1-yl)-2-(2,6-dioxopiperidin-3-yl)isoindoline-1,3-dione], the DC50 was less than 10 nM.

For the compound `O=C1CCC(N2C(=O)c3ccc(N4CCN(CCC5CCN(c6ccc(Nc7ncnc8[nH]cc(C(=O)c9ccc(Oc%10ccccc%10)cc9Cl)c78)cc6F)CC5)CC4)cc3C2=O)C(=O)N1` (centres unmarked) [Compound 44, 5-(4-(2-(1-(4-((5-(2-chloro-4-phenoxybenzoyl)-7H-pyrrolo[2,3-d]pyrimidin-4-yl)amino)-2-fluorophenyl)piperidin-4-yl)ethyl)piperazin-1-yl)-2-(2,6-dioxopiperidin-3-yl)isoindoline-1,3-dione], the DC50 was not below 100 nM.

On to `O=C1CC[C@H](N2Cc3cc(N4CCN(CCC5CCN(c6ccc(Nc7ncnc8[nH]cc(C(=O)c9ccc(Oc%10ccccc%10)cc9Cl)c78)cc6F)CC5)CC4)ccc3C2=O)C(=O)N1` [Compound 45, (S)-3-(5-(4-(2-(1-(4-((5-(2-chloro-4-phenoxybenzoyl)-7H-pyrrolo[2,3-d]pyrimidin-4-yl)amino)-2-fluorophenyl)piperidin-4-yl)ethyl)piperazin-1-yl)-1-oxoisoindolin-2-yl)piperidine-2,6-dione], for which the DC50 was not below 100 nM.

As to `O=C1CC[C@H](N2Cc3cc(N4CCN(CC5CCN(c6ccc(Nc7ncnc8[nH]cc(C(=O)c9ccc(Oc%10ccccc%10)cc9Cl)c78)cc6F)CC5)CC4)ccc3C2=O)C(=O)N1` [Compound 46, (S)-3-(5-(4-((1-(4-((5-(2-chloro-4-phenoxybenzoyl)-7H-pyrrolo[2,3-d]pyrimidin-4-yl)amino)-2-fluorophenyl)piperidin-4-yl)methyl)piperazin-1-yl)-1-oxoisoindolin-2-yl)piperidine-2,6-dione], the DC50 is not below 100 nM.

Regarding `O=C1CCC(N2C(=O)c3ccc(N4CCN(CC5CCN(c6ccc(Nc7ncnc8[nH]cc(C(=O)c9ccc(Oc%10ccccc%10)cc9Cl)c78)cc6F)CC5)CC4)cc3C2=O)C(=O)N1` (centres unmarked) [Compound 47, 5-(4-((1-(4-((5-(2-chloro-4-phenoxybenzoyl)-7H-pyrrolo[2,3-d]pyrimidin-4-yl)amino)-2-fluorophenyl)piperidin-4-yl)methyl)piperazin-1-yl)-2-(2,6-dioxopiperidin-3-yl)isoindoline-1,3-dione], the 50% degradation concentration (DC50) was not below 100 nM.

For `O=C1CCC(N2C(=O)c3ccc(N4CCC(N5CC(CC(=O)N6CCC(Nc7ncnc8[nH]cc(C(=O)c9ccc(Oc%10ccccc%10)cc9Cl)c78)CC6)C5)CC4)cc3C2=O)C(=O)N1` (centres unmarked) [Compound 48, 5-(4-(3-(2-(4-((5-(2-chloro-4-phenoxybenzoyl)-7H-pyrrolo[2,3-d]pyrimidin-4-yl)amino)piperidin-1-yl)-2-oxoethyl)azetidin-1-yl)piperidin-1-yl)-2-(2,6-dioxopiperidin-3-yl)isoindoline-1,3-dione], the 50% degradation concentration (DC50) is less than 10 nM.

On to `COc1ccc(C(=O)N2CCN(CCCCCC(=O)N3CCC(Nc4ncnc5[nH]cc(C(=O)c6ccc(Oc7ccccc7)cc6Cl)c45)CC3)CC2)cc1N1CCC(=O)NC1=O` [Compound 71, 1-(5-(4-(6-(4-((5-(2-chloro-4-phenoxybenzoyl)-7H-pyrrolo[2,3-d]pyrimidin-4-yl)amino)piperidin-1-yl)-6-oxohexyl)piperazine-1-carbonyl)-2-methoxyphenyl) dihydropyrimidine-2,4(1H,3H)-dione], for which the DC50 fell in the range of 10 to 100 nM.

Take `COc1ccc(C(=O)N2CCN(CCCCC(=O)N3CCC(Nc4ncnc5[nH]cc(C(=O)c6ccc(Oc7ccccc7)cc6Cl)c45)CC3)CC2)cc1N1CCC(=O)NC1=O` [Compound 72, 1-(5-(4-(5-(4-((5-(2-chloro-4-phenoxybenzoyl)-7H-pyrrolo[2,3-d]pyrimidin-4-yl)amino)piperidin-1-yl)-5-oxopentyl)piperazine-1-carbonyl)-2-methoxyphenyl)dihydropyrimidine-2,4(1H,3H)-dione]: the half-maximal degradation concentration (DC50) was not below 100 nM.

Regarding `COc1ccc(C(=O)N2CCC(N3CCC(CC(=O)N4CCC(Nc5ncnc6[nH]cc(C(=O)c7ccc(Oc8ccccc8)cc7Cl)c56)CC4)CC3)CC2)cc1N1CCC(=O)NC1=O` [Compound 73, 1-(5-(4-(2-(4-((5-(2-chloro-4-phenoxybenzoyl)-7H-pyrrolo[2,3-d]pyrimidin-4-yl)amino)piperidin-1-yl)-2-oxoethyl)-[1,4′-bipiperidine]-1′-carbonyl)-2-methoxyphenyl)dihydropyrimidine-2,4(1H,3H)-dione], the DC50 lay within 10 to 100 nM.

Turning to `COc1ccc(C(=O)N2CCN(CC3CCN(c4ccc(Nc5ncnc6[nH]cc(C(=O)c7ccc(Oc8ccccc8)cc7Cl)c56)cc4F)CC3)CC2)cc1N1CCC(=O)NC1=O` [Compound 74, 1-(5-(4-((1-(4-((5-(2-chloro-4-phenoxybenzoyl)-7H-pyrrolo[2,3-d]pyrimidin-4-yl)amino)-2-fluorophenyl)piperidin-4-yl)methyl)piperazine-1-carbonyl)-2-methoxyphenyl)dihydropyrimidine-2,4(1H,3H)-dione], the DC50 was not below 100 nM.

For the origin of these results see patent US11530222B2, “Substituted pyrrolopyrimidine and pyrazolopyrimidine as Bruton's tyrosine kinase (BTK) degraders” (ACCUTAR BIOTECHNOLOGY INC., priority 2021, dated 2022).
